Assay results as given in patent EP0623608B1, “BENZOPYRAN DERIVATIVE, PRODUCTION THEREOF, AND PHARMACEUTICAL PREPARATION CONTAINING THE SAME AS ACTIVE INGREDIENT” (TEIJIN LIMITED, priority 1992, dated 1993).

Molecular target: ACAT enzyme
Experiment: Measurement of ACAT enzyme inhibitory activity of rabbit small intestinal microsomes
Assay type: biochemical
Details: rabbit small intestinal mucosa microsome fraction 0.5 mg/ml, 43 µM oleoyl CoA containing [1-14C]oleoyl CoA, 37°C for 10 minutes
Description: Measurement of ACAT enzyme inhibitory activity (measurement of ACAT enzyme inhibitory activity of rabbit small intestinal microsomes
Rabbit small intestinal mucosa microsome was prepared and the ACAT enzyme activity was measured by the method of Salone and Field (reference: Biochemica et Biophysica, vol. 712, p. 557 (1982)) with a slight modification.
Using a 40 mM phosphate buffer containing 30 mM EDTA, 50 mM KCl, and 1.0M sucrose and having a pH of 7.4 (buffer A), rabbit small intestinal mucosa was homogenized. This was centrifuged at 10,000 x g and 4°C for 30 minutes to provide a supernatant. The supernatant was further centrifuged at 105,000 x g and 4°C for 1 hour to provide a precipitate. The precipitate was resuspended in the buffer A and used as the microsome fraction.
To the buffer A containing 43 µM bovine serum albumin and 0.5 mg/ml microsome fraction was added various concentrations of each specimen compound (compounds obtained in Examples 1, 3 to 5, and 7 to 14) in dimethylsulfoxide in amounts of 1% v/v. The mixture was heated at 37°C for 5 minutes. […]
0.111 kBq of [^3H] cholesteryl oleate and IN hydrochloric acid were added, and the mixture was stirred. The cholesteryl oleate extracted into the chloroform layer was isolated by a thin layer chromatography, and the radioactivity was measured as the ACAT activity.

- IC50: 0.13 µM
SMILES: CCCCCCCCCCOc1ccc2c(=O)ccoc2c1NC(=O)C(C)(C)C [Example 8, N-(7-decyloxyl-4-oxo-4H-1-benzopyran8-yl)-2,2-dimethylpropanamide]
